In PMC10666548, “Identification of the bacterial metabolite aerugine as potential trigger of human dopaminergic neurodegeneration” (Environment international, 2023):
Entries after “also recorded” stand apart in the source; their conditions may differ.

Columns and labels:
[1] = system: dopamine neurons of C. elegans BY200; assay: C. elegans dopaminergic neurodegeneration scoring (GFP-labelled neurons); type: in vivo, Caenorhabditis elegans; conditions: 48 h exposure
Protocol: The strain BY200 Pdat-1::gfp (vtIs1), dat-1::GFP(vtls1) was kindly provided by the Blakely laboratory, Vanderbilt University Medical Center and the strain Punc-25:GFP was obtained from the Caenorhabditis Genetics Center (CGC, University of Minnesota, Minneapolis, MN, USA). The worms were maintained in nematode growth medium (NGM) plates that contain: 3 g/l NaCl, 17 g/l agar, 2.5 g/l peptone, 1 mM CaCl2, 5 mg/l cholesterol, 1 mM MgSO4, 25 mM potassium phosphate buffer (pH 6.0) with 1.25 ml nystatin and 50 mg/l streptomycin sulfate) and Escherichia coli (E. coli) OP50 strain was used as food ([Brenner, 1974]). […]
On day 2 and day 8, approximately, 20–30 worms per treatment were picked onto slides prepped with a 3% agarose pad, anesthetized with 5 μl of 3 mM levamisole hydrochloride ([Sulston et al., 1975]) and observed under an Olympus BX41 fluorescence microscope to determine morphology status according to novel Likert-like scale of degeneration as previously described ([Benedetto et al., 2010]).
Fig. 5. […] They were exposed to different aerugine concentrations and counted every 24 h. […] Differences on a given day were analyzed by ANOVA and found to be non-significant. […] The GFP-labelled neurons of 20–30 worms per condition were analyzed and scored for specific neurodegeneration. […] These scores were assessed to quantify the dopaminergic neurodegeneration caused be aerugine in vivo. […]

[2] = system: HepG2; assay: Cell line viability, resazurin reduction, 72 h; type: cell-based, human; conditions: HepG2, 72 h, at <100 μM
Protocol: (§1) Hek293FT were acquired from ThermoFisher Scientific (cat. no. R70007). HepG2 were acquired from ATCC (HB-8065). HeLa were acquired from ATCC (CCL-2). The cell culture was performed as described previously ([Dolde et al., 2021]). Briefly, the cell lines were kept in DMEM Glutamax with 10% FCS and 1% penicillin/streptomycin at 37 °C with 5% CO2. They were grown in normal cell culture flasks (Sarstedt) to 75–90% confluence and seeded into standard 96-well plates 24 h prior to compound treatment. The cells were treated by performing a medium change to Advanced DMEM/F12 supplemented with 2 mM L-glutamine containing the indicated compound concentrations.
(§2) The assay was performed as described previously ([Schildknecht et al., 2009]). In brief, cells were stained with 10 μg/ml resazurin and incubated for 30 min at 37 °C and 5% CO2. The fluorescence of resazurin was detected with an excitation wavelength of 530 nm, using a 590 nm long-pass filter to record the emission.
(§3) Fig. 3. Cell type specificity of aerugine cytotoxicity. A Cultures of LUHMES neurons were used on d0 (proliferating, blue), d2 (immature, black) or d6 (mature, red) of differentiation for cytotoxicity testing. Cells were exposed to nine serial dilutions of synthetic aerugine. The cell viability was assessed 24 h later by calcein-AM & H-33342 staining and high content imaging. […] Dotted lines at 4 μM indicate the average EC50 for mature LUHMES. […] They were treated for 72 h with synthetic aerugine. The overall cell viability was assessed by measuring resazurin reduction in technical triplicates. Data are presented as means ± range of two biological replicates (different experiments). C Three iPSC-derived neuronal cell types were treated for 24 h with synthetic aerugine. The cell viability was assessed 24 h later by calcein-AM & H-33342 staining and high content imaging. Data are presented as means ± SEM of three biological replicates (different experiments). D Lack of cytotoxic or bacteriostatic effects of aerugine (20 μM) on exemplary gram-positive and gram-negative microbes: The growth characteristics of Enterococcus faecalis (gram-positive) and Neisseria gonorrhoeae MS11 (gram-negative) were followed during the log growth phase in their respective culture media. Data are from one biological replicate.

[3] = system: Hek293FT; assay: Cell line viability, resazurin reduction, 72 h; type: cell-based, human; conditions: at <100 μM
Protocol: as §1, §2, §3

[4] = system: HeLa; assay: Cell line viability, resazurin reduction, 72 h; type: cell-based, human; conditions: at <100 μM
Protocol: as §1, §2, §3

OCC1CSC(c2ccccc2O)=N1 (centres unmarked) [aerugine, 2-[4-(hydroxymethyl)-4,5-dihydro-1,3-thiazol-2-yl]phenol]
DAergic neurons that lost their normal (fully) healthy phenotype [1]: Up to 50%
degeneration of DA neurons ([1]; L4 worms): concentration-dependent degeneration of DA neurons; also recorded: specific neurodegeneration was observed
toxicity (overall cell viability, resazurin reduction) [2]: no toxicity was observed
toxicity (overall cell viability, resazurin reduction) ([2]; listed as Aerugine): non-toxic
toxicity (overall cell viability, resazurin reduction) [3]: no toxicity was observed
toxicity (overall cell viability, resazurin reduction) ([3]; listed as Aerugine): non-toxic
toxicity (overall cell viability, resazurin reduction) [4]: no toxicity was observed
toxicity (overall cell viability, resazurin reduction) ([4]; listed as Aerugine): non-toxic
